pIC50: −log10 of the molar value. Like-named read-outs stand apart in the source and are kept apart here.

Assay [1] concerns the target T1, KtrAB (Bacillus subtilis, UniProt O32081).
T1 construct: gene ktrB; purified complex of dimeric membrane protein KtrB and octameric cytoplasmic KtrA ring, reconstituted in liposomes; with Ktr system potassium uptake protein A
The assay is described as follows: ACMA fluorescence K+ efflux assay in proteoliposomes, 96-well, Hill fit of final fluorescence. The format is biochemical.

Assay [2] concerns the target T2, NaKΔN19/F92A (Bacillus cereus, UniProt Q81HW2, F92A).
T2 construct: gene BC_0669
The conditions noted are these: read-out: KI; no nucleotide; pH 8.0; KI defined as constant of 50% inhibition.

Assay [3] deals with T3, KtrB (Bacillus subtilis, UniProt O32081).
T3 construct: purified membrane subunit KtrB alone (no KtrA), reconstituted in liposomes; dimer
T3 sequence (O32081 whole entry): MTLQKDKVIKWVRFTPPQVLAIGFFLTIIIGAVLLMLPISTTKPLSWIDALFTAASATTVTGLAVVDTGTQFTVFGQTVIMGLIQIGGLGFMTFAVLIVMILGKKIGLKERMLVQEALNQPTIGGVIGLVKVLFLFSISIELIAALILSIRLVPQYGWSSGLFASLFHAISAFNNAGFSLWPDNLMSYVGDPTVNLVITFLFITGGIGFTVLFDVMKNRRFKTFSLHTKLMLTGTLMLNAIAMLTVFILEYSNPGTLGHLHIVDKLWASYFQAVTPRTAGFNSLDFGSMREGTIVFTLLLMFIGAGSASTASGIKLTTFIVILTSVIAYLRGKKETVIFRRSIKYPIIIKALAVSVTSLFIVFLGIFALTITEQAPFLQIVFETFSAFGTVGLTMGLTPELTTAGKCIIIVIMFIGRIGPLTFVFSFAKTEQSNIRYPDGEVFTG
Description: ACMA fluorescence K+ efflux assay in proteoliposomes, 96-well, Hill fit of final fluorescence. In kind it is biochemical.

The target of assay [4] is T4, KtrAB (Bacillus subtilis, UniProt O32081, R417K).
T4 construct: gene ktrB; purified complex of dimeric membrane protein KtrB and octameric cytoplasmic KtrA ring, reconstituted in liposomes; with Ktr system potassium uptake protein A
T4 sequence (O32080 whole entry): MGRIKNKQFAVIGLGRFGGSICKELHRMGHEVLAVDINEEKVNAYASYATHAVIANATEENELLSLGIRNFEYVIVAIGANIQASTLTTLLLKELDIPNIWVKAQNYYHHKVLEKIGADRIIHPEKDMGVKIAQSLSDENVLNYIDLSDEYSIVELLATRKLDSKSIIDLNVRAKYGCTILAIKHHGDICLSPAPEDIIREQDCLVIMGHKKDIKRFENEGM
T4 sequence (O32081 whole entry R417K): as the sequence (O32081 whole entry) above, with R417K counted along it
The assay is described as follows: ACMA fluorescence K+ efflux assay in proteoliposomes, single concentration. The format is biochemical. The conditions noted are these: ATP form; also tested in the ADP form.

T1 sequence (O32081 whole entry): as the sequence (O32081 whole entry) above
T1 sequence (O32080 whole entry, further chain): as the sequence (O32080 whole entry) above
T2 sequence (Q81HW2 19-110 F92A): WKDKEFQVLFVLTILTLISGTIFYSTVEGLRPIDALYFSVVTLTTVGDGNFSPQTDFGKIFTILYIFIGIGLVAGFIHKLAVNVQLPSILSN

For the compound `OC(CN1CCCCCC1)CN(c1ccccc1)c1ccccc1` (centres unmarked) [compound 3, compound #3], the pIC50 in assay [1] (read-out: KI) was 5.70.

With `CCN(CC)CCn1c(=N)n(CC(=O)C23CC4CC(CC(C4)C2)C3)c2ccccc21` [compound 21, compound #21], the pIC50 in assay [1] (read-out: KI) is 6.10.

In the case of `CC1CCCC(C)N1CC(O)COc1ccc(Cl)cc1` (centres unmarked) [compound 41, compound #41], the pIC50 in assay [1] (read-out: KI) is 5.52.

As for `Cc1cc(C)c(OCC(O)CNC(C)(C)CC(C)(C)C)c(C)c1` (centres unmarked) [compound 1, compound #1], the results for the pIC50 in assay [1] (read-out: KI) and in assay [2] were 5.70 and 4.85, respectively.

In the case of `COc1ccc(Br)cc1CNCCc1cccc(F)c1` [compound 39, compound #39], the pIC50 in assay [3] was 5.42; in assay [1], 5.40.

For the compound `Cc1cc(C)c(C)c(OCCCCN2CCCCC2)c1` [compound 25, compound #25], in assay [1] (read-out: KI), the pIC50 is 5.70.

Regarding `O=C(Nc1ccc(Cl)cc1)Nc1cccc(C(F)(F)F)c1` [compound 36, compound #36], the “% inhibition at 6 μM” value in assay [4] is “all tested compounds showed inhibition with both the active and inactive forms of KtrABR417K”. Moreover, the pIC50 in assay [3] (no nucleotide, KtrB alone, pH 8.0, KI defined as constant of 50% inhibition, read-out: KI) is 6.30; in assay [1] (0.1 mM ATP (active state), 0.5 mM MgCl2, pH 8.0, KI defined as constant of 50% inhibition, read-out: KI), 5.10.

Consider `COc1ccc(CN2CCN(c3cccc(C)c3C)CC2)c(OC)c1` [compound 6, compound #6], for which the pIC50 in assay [1] (read-out: KI) was 6.00; in assay [2], 4.80.

Regarding `CCCN1CCC(N(CCc2ccccc2)Cc2ccccc2)CC1` [compound 31, compound #31], the pIC50 in assay [1] (read-out: KI) is 6.00.

The values above are taken from publication PMC7956971, “Fluorometric Liposome Screen for Inhibitors of a Physiologically Important Bacterial Ion Channel” (Frontiers in Microbiology, 2021).
